The source made the active and inactive calls. The rule behind the calls is not given here.
Legend:
[1] = (§1) Ionophoric activity across pyranine dye encapsulated pH 7 egg yolk L-alpha-phosphatidylcholine-based large unilamellar vesicles assessed as chloride ion transport by measuring initial rate constant for induction of pH discharge at 0.0313 mol% in presence of NaCl loaded external vesicles by fluorescence method (reference value: 0.81 +/- 0.22 10^-2/min)
[2] = Ionophoric activity across pyranine dye encapsulated pH 7 egg yolk L-alpha-phosphatidylcholine-based large unilamellar vesicles assessed as sulfate ion transport by measuring induction of pH discharge up to 3 mol% in presence of Na2SO4 loaded external vesicles by fluorescence method
[3] = as §1, with “nitrate” for “chloride”, “0.0625” for “0.0313”, “NaNO3” for “NaCl”, “2.24” for “0.81”, “0.52” for “0.22”
[4] = as §1, with “nitrate” for “chloride”, “0.125” for “0.0313”, “NaNO3” for “NaCl”, “2.24” for “0.81”, “0.52” for “0.22”
[5] = Ionophoric activity across egg yolk L-alpha-phosphatidylcholine-based large unilamellar vesicles loaded with NaCl assessed as release of chloride ion after 300 seconds in presence of NaNO3 loaded external vesicles by electrode technique
[6] = Ionophoric activity across egg yolk L-alpha-phosphatidylcholine-based large unilamellar vesicles loaded with LiCl assessed as chloride ion efflux at 1 mol% after 300 seconds in presence of NaNO3 loaded external vesicles by electrode technique
[7] = as §1, with “0.0078” for “0.0313”
[8] = as §1, with “nitrate” for “chloride”, “0.03125” for “0.0313”, “NaNO3” for “NaCl”, “2.24” for “0.81”, “0.52” for “0.22”
[9] = as §1, with “nitrate” for “chloride”, “0.01563” for “0.0313”, “NaNO3” for “NaCl”, “2.24” for “0.81”, “0.52” for “0.22”
[10] = as §1, with “iodide” for “chloride”, “NaI” for “NaCl”, “3.52” for “0.81”
[11] = as §1, with “bromide” for “chloride”, “0.125” for “0.0313”, “NaBr” for “NaCl”, “2.08” for “0.81”, “0.19” for “0.22”
[12] = as §1, with “iodide” for “chloride”, “0.0078” for “0.0313”, “NaI” for “NaCl”, “3.52” for “0.81”
[13] = as §1, with “iodide” for “chloride”, “0.0039” for “0.0313”, “NaI” for “NaCl”, “3.52” for “0.81”
[14] = Ionophoric activity across egg yolk L-alpha-phosphatidylcholine-based large unilamellar vesicles loaded with NaCl assessed as chloride transportat 1 mol% after 300 seconds in presence of NaSO4 loaded external vesicles by electrode technique
[15] = as §1, with “0.0625” for “0.0313”
[16] = Ionophoric activity across egg yolk L-alpha-phosphatidylcholine-based large unilamellar vesicles loaded with CsCl assessed as chloride ion efflux at 1 mol% after 300 seconds in presence of NaNO3 loaded external vesicles by electrode technique
[17] = as §1, with “0.125” for “0.0313”
[18] = Ionophoric activity across pyranine dye encapsulated pH 7 egg yolk L-alpha-phosphatidylcholine-based large unilamellar vesicles assessed as nitrate ion transport by measuring induction of pH discharge in presence of NaNO3 loaded external vesicles by fluorescence method
[19] = Ionophoric activity across pyranine dye encapsulated pH 7 egg yolk L-alpha-phosphatidylcholine-based large unilamellar vesicles assessed as iodide ion transport by measuring induction of pH discharge in presence of NaI loaded external vesicles by fluorescence method
[20] = as §1, with “bromide” for “chloride”, “0.0625” for “0.0313”, “NaBr” for “NaCl”, “2.08” for “0.81”, “0.19” for “0.22”
[21] = as §1, with “iodide” for “chloride”, “0.0625” for “0.0313”, “NaI” for “NaCl”, “3.52” for “0.81”
[22] = as §1, with “bromide” for “chloride”, “0.0078” for “0.0313”, “NaBr” for “NaCl”, “2.08” for “0.81”, “0.19” for “0.22”
[23] = Ionophoric activity across egg yolk L-alpha-phosphatidylcholine-based large unilamellar vesicles loaded with KCl assessed as chloride ion efflux at 1 mol% after 300 seconds in presence of NaNO3 loaded external vesicles by electrode technique
[24] = as §1, with “iodide” for “chloride”, “0.0156” for “0.0313”, “NaI” for “NaCl”, “3.52” for “0.81”
[25] = Ionophoric activity across pyranine dye encapsulated pH 7 egg yolk L-alpha-phosphatidylcholine-based large unilamellar vesicles assessed as chloride ion transport by measuring induction of pH discharge in presence of NaCl loaded external vesicles by fluorescence method
[26] = Ionophoric activity across egg yolk L-alpha-phosphatidylcholine-based large unilamellar vesicles loaded with RbCl assessed as chloride ion efflux at 1 mol% after 300 seconds in presence of NaNO3 loaded external vesicles by electrode technique
[27] = Binding affinity to tetrabutylammonium chloride anion after 2 mins by spectrophotometric method
[28] = Binding affinity to tetrabutylammonium chloride anion by 1H NMR spectrophotometric method
[29] = Binding affinity to tetrabutylammonium sulphate anion by 1H NMR spectrophotometric method
[30] = as §1, with “bromide” for “chloride”, “0.0156” for “0.0313”, “NaBr” for “NaCl”, “2.08” for “0.81”, “0.19” for “0.22”
[31] = Ionophoric activity across pyranine dye encapsulated pH 7 egg yolk L-alpha-phosphatidylcholine-based large unilamellar vesicles assessed as bromide ion transport by measuring induction of pH discharge in presence of NaBr loaded external vesicles by fluorescence method
[32] = as §1, with “nitrate” for “chloride”, “0.00781” for “0.0313”, “NaNO3” for “NaCl”, “2.24” for “0.81”, “0.52” for “0.22”
[33] = as §1, with “0.25” for “0.0313”
[34] = as §1, with “bromide” for “chloride”, “NaBr” for “NaCl”, “2.08” for “0.81”, “0.19” for “0.22”
[35] = Binding affinity to tetramethylammonium sulfate anion after 2 mins by spectrophotometric method
[36] = as §1, with “0.5” for “0.0313”
[37] = as §1, with “bromide” for “chloride”, “0.25” for “0.0313”, “NaBr” for “NaCl”, “2.08” for “0.81”, “0.19” for “0.22”
[38] = Ionophoric activity across egg yolk L-alpha-phosphatidylcholine-based large unilamellar vesicles loaded with CsCl assessed as chloride ion efflux at 3 mol% after 300 seconds in presence of NaNO3 loaded external vesicles by electrode technique
[39] = as §1, with “nitrate” for “chloride”, “NaNO3” for “NaCl”, “2.24” for “0.81”, “0.52” for “0.22”
[40] = Ionophoric activity across egg yolk L-alpha-phosphatidylcholine-based large unilamellar vesicles loaded with LiCl assessed as chloride ion efflux at 3 mol% after 300 seconds in presence of NaNO3 loaded external vesicles by electrode technique
[41] = Ionophoric activity across egg yolk L-alpha-phosphatidylcholine-based large unilamellar vesicles loaded with KCl assessed as chloride ion efflux at 3 mol% after 300 seconds in presence of NaNO3 loaded external vesicles by electrode technique
[42] = as §1, with “nitrate” for “chloride”, “0.25” for “0.0313”, “NaNO3” for “NaCl”, “2.24” for “0.81”, “0.52” for “0.22”
[43] = Ionophoric activity across egg yolk L-alpha-phosphatidylcholine-based large unilamellar vesicles loaded with RbCl assessed as chloride ion efflux at 3 mol% after 300 seconds in presence of NaNO3 loaded external vesicles by electrode technique
[44] = as §1, with “1” for “0.0313”
[45] = Ionophoric activity across HPTS dye encapsulated pH 7 egg yolk L-alpha-phosphatidylcholine-based large unilamellar vesicles assessed as chloride ion transport by measuring induction of pH discharge in presence of NaCl loaded external vesicles by fluorescence method

| SMILES | K [1] [×10⁻² /min] | Activity [2] | K [3] [×10⁻² /min] | K [4] [×10⁻² /min] | Activity [5] | K [9] [×10⁻² /min] | K [10] [×10⁻² /min] | K [11] [×10⁻² /min] | K [12] [×10⁻² /min] | K [13] [×10⁻² /min] | Activity [14] | K [17] [×10⁻² /min] | EC50 [18] [mol%] | EC50 [19] [mol%] | K [20] [×10⁻² /min] | K [21] [×10⁻² /min] | K [24] [×10⁻² /min] | EC50 [25] [mol%] | Ka [27] | logKa [27] | also measured |
| --- | --- | --- | --- | --- | --- | --- | --- | --- | --- | --- | --- | --- | --- | --- | --- | --- | --- | --- | --- | --- | --- |
| O=c1c(NCCN(CCNc2c(Nc3ccc(C(F)(F)F)cc3)c(=O)c2=O)CCNc2c(Nc3ccc(C(F)(F)F)cc3)c(=O)c2=O)c(Nc2ccc(C(F)(F)F)cc2)c1=O | 1.68 | inactive | 7.45 | 11.4 | Dose-dependent effect | 3.17 | 9.99 | 11 | 5.2 | 3.94 | inactive | 4.04 | 0.11 | 0.06 | 7.27 | 14.5 | 6.27 | 0.14 | 7.03 ×10² /M | 2.84 | Activity [6]: inactive; K [7]: 1.27 ×10⁻² /min; K [8]: 4.91 ×10⁻² /min; K [15]: 2.69 ×10⁻² /min; Activity [16]: inactive; K [22]: 2.59 ×10⁻² /min; Activity [23]: inactive; Activity [26]: inactive; logKa [28]: 2.65; logKa [29]: 4.87; K [30]: 3.37 ×10⁻² /min; EC50 [31]: 0.13 mol%; K [32]: 2.53 ×10⁻² /min; K [33]: 5.41 ×10⁻² /min; K [34]: 4.31 ×10⁻² /min; Ka [35]: 4.79 ×10⁵ /M; logKa [35]: 5.64 |
| O=c1c(NCCN(CCNc2c(Nc3cc(C(F)(F)F)cc(C(F)(F)F)c3)c(=O)c2=O)CCNc2c(Nc3cc(C(F)(F)F)cc(C(F)(F)F)c3)c(=O)c2=O)c(Nc2cc(C(F)(F)F)cc(C(F)(F)F)c2)c1=O | 1.32 | inactive | 4.52 | 6.9 | Dose-dependent effect | 2.77 | 7.67 | 6.24 | 4.41 | 3.7 | inactive | 2.57 | 0.23 | 0.05 | 3.85 | 10.6 | 5.92 | 0.75 | 2.94 ×10³ /M | 3.47 | K [36]: 6.63 ×10⁻² /min; K [37]: 10.8 ×10⁻² /min; Activity [38]: inactive; K [39]: 3.2 ×10⁻² /min; Activity [40]: inactive; Activity [41]: inactive; K [42]: 10.2 ×10⁻² /min; K [30]: 2.22 ×10⁻² /min; EC50 [31]: 0.49 mol%; Activity [43]: inactive; K [33]: 3.87 ×10⁻² /min; K [34]: 2.89 ×10⁻² /min; K [44]: 9.42 ×10⁻² /min; Ka [35]: > 1 ×10⁵ /M; logKa [35]: > 5 |
| O=C(Nc1ccccc1)Nc1ccc(N2COc3c(c4c(c5c3CN(c3ccc(NC(=O)Nc6ccccc6)cc3)CO5)CN(c3ccc(NC(=O)Nc5ccccc5)cc3)CO4)C2)cc1 |  |  |  |  |  |  |  |  |  |  |  |  |  |  |  |  |  |  |  |  | EC50 [45]: 0.49 mol% |
